Experimental data as given in PubChem BioAssay (NCI).
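Growth conditions: 96-well plates. Treatment: test compound, 48 hours, 5 concentrations. Analysis: linear interpolation between bracketing concentrations; unreached endpoints set to highest concentration. GI50 is the concentration that inhibits growth by half. TGI marks complete inhibition of growth.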

Columns and labels:
Assay in all cases: growth of human tumour cells (NCI), 48 h
[1] = test system: NCI-H460 lung
[2] = test system: SK-OV-3 ovarian
[3] = test system: PC-3 prostate
[4] = test system: UACC-62 melanoma
[5] = test system: COLO 205 colon
[6] = test system: OVCAR-8 ovarian
[7] = test system: MALME-3M melanoma
[8] = test system: SNB-75 CNS
[9] = test system: BT-549 breast
[10] = test system: 786-0 renal
[11] = test system: M14 melanoma
[12] = test system: EKVX NSCLC
[13] = test system: T-47D breast
[14] = test system: ACHN renal
[15] = test system: LOX IMVI melanoma
[16] = test system: CAKI-1 renal
[17] = test system: HCT-15 colon
[18] = test system: A549 NSCLC
[19] = test system: SK-MEL-2 melanoma
[20] = test system: TK-10 renal
[21] = test system: MDA-MB-435
[22] = test system: DU-145 prostate
[23] = test system: A498 renal
[24] = test system: HT29 colon
[25] = test system: NCI-H226 lung
[26] = test system: SF-295 CNS
[27] = test system: NCI-H522 lung
[28] = test system: RPMI-8226 leukemia
[29] = test system: MDA-MB-231 breast
[30] = test system: OVCAR-5 ovarian
[31] = test system: MCF7 breast
[32] = test system: OVCAR-3 ovarian
[33] = test system: HCC-2998 colon
[34] = test system: NCI/ADR-RES ovarian
[35] = test system: KM12 colon
[36] = test system: CCRF-CEM leukemia
[37] = test system: IGROV1 ovarian
[38] = test system: SR leukemia
[39] = test system: SW-620 colon
[40] = test system: OVCAR-4 ovarian
[41] = test system: SNB-19 CNS
[42] = test system: SK-MEL-28 melanoma
[43] = test system: K-562 leukemia
[44] = test system: HOP-92 NSCLC
[45] = test system: MOLT-4 leukemia
[46] = test system: SF-268 CNS
[47] = test system: SN12C renal
[48] = test system: RXF 393 renal
[49] = test system: HS 578T breast
[50] = test system: UACC-257 melanoma
[51] = test system: HOP-62 NSCLC
[52] = test system: SK-MEL-5 melanoma
[53] = test system: NCI-H23 lung
[54] = test system: U251 CNS
[55] = test system: HL-60(TB) leukemia
[56] = test system: UO-31 renal
[57] = test system: HCT-116 colon

What does the source list for C[C@@H]1C/C=C\C(=O)O[C@H](/C=C/C#C/C=C/C(C)(C)[C@@H](O)c2cccc(O)c2Br)[C@@H](C)/C=C/[C@H](C)C[C@H](OC(N)=O)C1?
GI50 [1]: 23.4 nM; TGI [1]: 11200 nM; GI50 [2]: 13300 nM; TGI [2]: 27300 nM; GI50 [3]: 45 nM; TGI [3]: 17400 nM; GI50 [4]: 23.9 nM; TGI [4]: 65.6 nM; GI50 [5]: 43.5 nM; TGI [5]: 21400 nM; GI50 [6]: 51.2 nM; TGI [6]: 23200 nM; GI50 [7]: 41.9 nM; TGI [7]: 4600 nM; GI50 [8]: 255 nM; TGI [8]: 21200 nM; GI50 [9]: 30.8 nM; TGI [9]: 18200 nM; GI50 [10]: 36.1 nM; TGI [10]: 15200 nM; GI50 [11]: 23.6 nM; TGI [11]: 63.9 nM; GI50 [12]: 71.6 nM; TGI [12]: 18700 nM; GI50 [13]: 35.4 nM; TGI [13]: 22900 nM; GI50 [14]: 40.5 nM; TGI [14]: 14500 nM; GI50 [15]: 16.7 nM; TGI [15]: 44.7 nM; GI50 [16]: 46.2 nM; TGI [16]: 13800 nM; GI50 [17]: 34 nM; TGI [17]: 11900 nM; GI50 [18]: 33.2 nM; TGI [18]: 19500 nM; GI50 [19]: 34.6 nM; TGI [19]: 1010 nM; GI50 [20]: 4280 nM; TGI [20]: 21600 nM; GI50 [21]: 33.2 nM; TGI [21]: 12100 nM; GI50 [22]: 66.3 nM; TGI [22]: 19400 nM; GI50 [23]: 543 nM; TGI [23]: 18700 nM; GI50 [24]: 29 nM; TGI [24]: 5770 nM; GI50 [25]: 445 nM; TGI [25]: 19000 nM; GI50 [26]: 21.2 nM; TGI [26]: 48.5 nM; GI50 [27]: 41.7 nM; TGI [27]: 14700 nM; GI50 [28]: 41.1 nM; TGI [28]: 6450 nM; GI50 [29]: 13.9 nM; TGI [29]: 2120 nM; GI50 [30]: 32.2 nM; TGI [30]: 18300 nM; GI50 [31]: 61.3 nM; TGI [31]: 15500 nM; GI50 [32]: 63.6 nM; TGI [32]: 15700 nM; GI50 [33]: 54 nM; TGI [33]: 11800 nM; GI50 [34]: 56.7 nM; TGI [34]: 16400 nM; GI50 [35]: 25.2 nM; TGI [35]: 16200 nM; GI50 [36]: 41.9 nM; TGI [36]: 33000 nM; GI50 [37]: 34.4 nM; TGI [37]: 18500 nM; GI50 [38]: 27.3 nM; TGI [38]: > 100000 nM; GI50 [39]: 34.8 nM; TGI [39]: 15800 nM; GI50 [40]: 6450 nM; TGI [40]: 22000 nM; GI50 [41]: 1660 nM; TGI [41]: 19100 nM; GI50 [42]: 278 nM; TGI [42]: 12900 nM; GI50 [43]: 33.2 nM; TGI [43]: > 32700 nM; GI50 [44]: 22.8 nM; TGI [44]: 83.6 nM; GI50 [45]: 34 nM; TGI [45]: 40800 nM; GI50 [46]: 40.2 nM; TGI [46]: 18200 nM; GI50 [47]: 54.2 nM; TGI [47]: 14000 nM; GI50 [48]: 636 nM; TGI [48]: 7810 nM; GI50 [49]: 400 nM; TGI [49]: 32300 nM; GI50 [50]: 32.2 nM; TGI [50]: 4080 nM; GI50 [51]: 633 nM; TGI [51]: 21400 nM; GI50 [52]: 17.9 nM; TGI [52]: 35.4 nM; GI50 [53]: 319 nM; TGI [53]: 21600 nM; GI50 [54]: 70.6 nM; TGI [54]: 18300 nM; GI50 [55]: 38.2 nM; TGI [55]: 2260 nM; GI50 [56]: 22.7 nM; TGI [56]: 79.9 nM; GI50 [57]: 36.2 nM; TGI [57]: 12500 nM
